Measured values: PMC10145249, “Synthesis and Evaluation of ^68Ga-Labeled (2S,4S)-4-Fluoropyrrolidine-2-Carbonitrile and (4R)-Thiazolidine-4-Carbonitrile Derivatives as Novel Fibroblast Activation Protein-Targeted PET Tracers for Cancer Imaging” (Molecules, 2023)
Read-outs that look alike come from different tables or passages of the source. Each block holds one compound with its values, some of them ahead of it.

Key:
FAP [1] = tested on: FAP; parameters: method as in PMID 24617858; conditions: cited from earlier work; for IC50: (4-quinolinoyl)-glycyl-2-cyanopyrrolidine series, read-out: IC50 (FAP-inhibitory potency)
[2] = tested on: HEK293T:hFAP tumor xenografts; assay: PET/CT imaging in HEK293T:hFAP tumor-bearing mice; assay type: in vivo; conditions: for Visualization of tumor xenografts in PET/CT images / Excretion pathway: 1 h pi; for Excretion pathway: PET/CT
Method: (§1) Imaging and biodistribution studies were performed using immunodeficient male NRG (NOD.Cg-Rag1tm1Mom Il2rgtm1Wjl/SzJ) mice. All experiments were conducted according to the guidelines established by the Canadian Council on Animal Care and approved by Animal Ethics Committee of the University of British Columbia. The mice were subcutaneously inoculated with 7.5 × 10^6 HEK293T:hFAP cells in the left dorsal flank. When the tumors grew to 6–8 mm in diameter, the mice were used for PET/CT imaging and biodistribution studies.
PET/CT imaging experiments were carried out using a Siemens Inveon micro PET/CT scanner (Knoxville, TN, USA). Tumor-bearing mice were injected with ~4 to 6 MBq (0.02–0.13 nmol) of ^68Ga-labeled tracer through a lateral caudal tail vein under 2.5% isoflurane in oxygen anesthesia, followed by recovery and free roaming in their cage during the uptake period. A 10 min localization CT scan was acquired using 3 overlapping positions to cover each entire mouse. A CT scan was used for attenuation and scatter correction, and anatomical localization. A list mode acquisition was then performed for 15 min at 1 h pi with each mouse under isoflurane sedation. The images were reconstructed using 3D OSEM/MAP iterative methods.
(§2) For blocking studies, HEK293T:hFAP tumor-bearing mice were co-injected with [^68Ga]Ga-SB03045 and excess nonradioactive Ga-FAPI-04 (0.5 mg/mouse) as a competitor. Imaging and biodistribution were performed at 1 h pi, similar to the process for the unblocked mice.

[3] = tested on: HEK293T:hFAP tumor-bearing mice; assay: Ex vivo biodistribution in HEK293T:hFAP tumor xenograft mouse model
Method: as §1
For biodistribution studies, the mice were injected with ~1–2 MBq (0.01–0.04 nmol) of the ^68Ga-labeled tracer, using the exact procedures described above. At 1 h post injection, the mice were euthanized by CO2 inhalation. Blood was withdrawn by cardiac puncture and organs/tissues of interest were collected, weighed, and counted using a Perkin Elmer (Waltham, MA, USA) Wizard2 2480 automatic gamma counter. The percent injected dose per gram of tissues (%ID/g) for different tracers was calculated.
as §2

[4] = LogD7.4 measurement (n-octanol / phosphate buffer pH 7.4); assay type: physicochemical; conditions: n-octanol / 0.1 M phosphate buffer pH 7.4, n = 3
Method: Briefly, ^68Ga-labeled tracers (1.11–1.48 MBq) were aliquoted into vials containing 3 mL of n-octanol and 3 mL of 0.1 M phosphate buffer (pH 7.4) in triplicate. Each vial was then vortexed (1 min) and centrifuged (5000 RPM, 10 min). The n-octanol and aqueous layers were sampled (1 mL) and counted using an automated gamma counter and the LogD7.4 value was calculated using the following equation: LogD7.4=log10counts in n-octanol phase/counts in buffer phase

FAP [5] = tested on: FAP; parameters: method as in PMID 20718420; conditions: substituted 4-carboxymethylpyroglutamic acid scaffold; read-out: IC50 (FAP-inhibitory activity); cited from earlier work
recombinant human FAP = target: T1, recombinant human FAP (Homo sapiens, UniProt Q12884); assay: In vitro fluorescence-based FAP enzymatic inhibition assay (Suc-Gly-Pro-AMC substrate); assay type: biochemical; conditions: for IC50: recombinant human FAP, Suc-Gly-Pro-AMC, n = 3
T1 construct: purchased Biolegend
T1 sequence (Q12884 1-760): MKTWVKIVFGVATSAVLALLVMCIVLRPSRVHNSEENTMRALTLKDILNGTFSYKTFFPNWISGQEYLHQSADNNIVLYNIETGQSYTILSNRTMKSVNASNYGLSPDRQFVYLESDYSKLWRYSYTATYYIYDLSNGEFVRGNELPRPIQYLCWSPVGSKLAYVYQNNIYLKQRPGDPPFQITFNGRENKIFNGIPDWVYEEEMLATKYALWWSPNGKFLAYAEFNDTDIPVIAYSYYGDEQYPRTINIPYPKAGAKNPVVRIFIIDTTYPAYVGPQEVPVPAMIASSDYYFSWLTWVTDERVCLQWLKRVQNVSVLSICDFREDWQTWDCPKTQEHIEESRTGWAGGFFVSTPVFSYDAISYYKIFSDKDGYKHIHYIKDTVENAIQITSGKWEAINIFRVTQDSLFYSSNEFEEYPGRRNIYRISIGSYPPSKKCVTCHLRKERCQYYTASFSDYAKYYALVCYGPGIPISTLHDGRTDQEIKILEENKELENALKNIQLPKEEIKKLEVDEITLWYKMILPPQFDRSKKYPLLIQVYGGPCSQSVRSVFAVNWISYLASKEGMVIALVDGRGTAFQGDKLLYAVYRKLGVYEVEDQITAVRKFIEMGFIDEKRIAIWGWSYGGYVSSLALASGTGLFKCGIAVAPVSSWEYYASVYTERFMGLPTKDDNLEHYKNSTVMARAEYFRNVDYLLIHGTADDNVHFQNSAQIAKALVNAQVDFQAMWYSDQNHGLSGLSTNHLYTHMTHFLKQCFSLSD
Method: The half-maximal inhibitory concentration (IC50) values of the FAP-targeted ligands were measured using an in vitro enzymatic assay. Briefly, recombinant human FAP (Biolegend, San Diego, CA, USA; 0.2 µg/mL, 50 µL) was added into a Costar clear bottom 96-well plate. PBS and varied concentrations (25 pM to 1 µM) of ^natGa-complexed ligands were added to each well (in duplicate) containing the recombinant human FAP. After being incubated for 30 min at 37 °C, Suc-Gly-Pro-AMC (Bachem, Bubendorf, Switzerland; 20 mM, 50 µL) was added to each well. The velocities of AMC release were measured kinetically at λex = 380 nm, λem = 460 nm at 60 min at 37 °C using a FlexStation 3 Multi-Mode Microplate Reader.

[6] = parameters: method as in PMID 30072500; conditions: patients, preliminary dosimetry study; cited from earlier work
[7] = 0.5 mg/mouse natGa-FAPI-04, 1 h pi
[8] = HEK293T:hFAP tumor-bearing mice, 1 h pi, blocked: co-injected with natGa-FAPI-04 (0.5 mg/mouse)
[9] = HEK293T:hFAP tumor-bearing mice, 1 h pi, unblocked

SMILES: N#CC1CC(F)CN1C(=O)CNC(=O)c1ccnc2ccccc12 [(4S)-fluoropyrrolidine]
IC50 (FAP [1]): 3.3 nM

SMILES: N#C[C@@H]1C[C@H](F)CN1C(=O)CNC(=O)c1ccnc2ccc(OCCCN3CCN(C(=O)CN4CCN5CCN(CC(=O)O)CCN(CC4)CC(=O)[O][68Ga+][O]C(=O)C5)CC3)cc12 [[^68Ga]Ga-SB03045]
Visualization of tumor xenografts in PET/CT images [2]: clearly visualized
Excretion pathway [2]: excreted mainly via the renal pathway
Tumor uptake in PET/CT on co-injection with natGa-FAPI-04 ([2]; blocked, 0.5 mg/mouse natGa-FAPI-04, 1 h pi): reduced the tumor uptake to almost background level
Reduction in bone uptake by co-injection of excess natGa-FAPI-04 [3, 7]: ~ 97%
Reduction of average tumor uptake by co-injection of natGa-FAPI-04 [3, 7]: ~ 96%
Adrenal Glands uptake [3, 8]: 0.14 ± 0.08 %ID/g
Blood uptake [3, 8]: 0.19 ± 0.12 %ID/g
Bone uptake [3, 8]: 0.09 ± 0.05 %ID/g
Brain uptake [3, 8]: 0.01 ± 0.01 %ID/g
Fat uptake [3, 8]: 0.04 ± 0.02 %ID/g
Heart uptake [3, 8]: 0.05 ± 0.03 %ID/g
Kidneys uptake [3, 8]: 1.03 ± 0.43 %ID/g
Liver uptake [3, 8]: 0.13 ± 0.04 %ID/g
Lungs uptake [3, 8]: 0.15 ± 0.09 %ID/g
Muscle uptake [3, 8]: 0.05 ± 0.03 %ID/g
Pancreas uptake [3, 8]: 0.04 ± 0.03 %ID/g
Small Intestines uptake [3, 8]: 0.12 ± 0.06 %ID/g
Spleen uptake [3, 8]: 0.10 ± 0.05 %ID/g
Stomach uptake [3, 8]: 0.07 ± 0.06 %ID/g
Testes uptake [3, 8]: 0.06 ± 0.03 %ID/g
Tumor uptake [3, 8]: 0.51 %ID/g
Tumor/Blood uptake ratio [3, 8]: 3.06 ± 1.01
Tumor/Bone uptake ratio [3, 8]: 6.67 ± 2.72
Tumor/Kidney uptake ratio [3, 8]: 0.50 ± 0.01
Tumor/Muscle uptake ratio [3, 8]: 12.4 ± 5.48
Adrenal Glands uptake [3, 9]: 0.49 ± 0.47 %ID/g
Blood uptake [3, 9]: 1.31 ± 0.43 %ID/g
Bone uptake [3, 9]: 3.48 ± 1.02 %ID/g
Brain uptake [3, 9]: 0.05 ± 0.01 %ID/g
Fat uptake [3, 9]: 0.14 ± 0.08 %ID/g
Heart uptake [3, 9]: 0.41 ± 0.15 %ID/g
Kidneys uptake [3, 9]: 2.23 ± 0.41 %ID/g
Liver uptake [3, 9]: 0.47 ± 0.10 %ID/g
Lungs uptake [3, 9]: 0.69 ± 0.20 %ID/g
Muscle uptake [3, 9]: 0.83 ± 0.42 %ID/g
Pancreas uptake [3, 9]: 0.52 ± 0.22 %ID/g
Small Intestines uptake [3, 9]: 0.40 ± 0.10 %ID/g
Spleen uptake [3, 9]: 0.49 ± 0.19 %ID/g
Stomach uptake [3, 9]: 0.31 ± 0.04 %ID/g
Testes uptake [3, 9]: 0.26 ± 0.08 %ID/g
Tumor uptake [3, 9]: 11.8 ± 2.35 %ID/g
Tumor/Blood uptake ratio [3, 9]: 9.89 ± 3.80
Tumor/Bone uptake ratio [3, 9]: 3.58 ± 1.07
Tumor/Kidney uptake ratio [3, 9]: 5.41 ± 1.32
Tumor/Muscle uptake ratio [3, 9]: 17.2 ± 8.68
LogD7.4 [4]: −2.81 ± 0.05

SMILES: N#C[C@@H]1C[C@H](F)CN1C(=O)CNC(=O)c1ccnc2ccc(OCCCN3CCN(C(=O)CN4CCN5CCN(CC(=O)O)CCN(CC4)CC(=O)[O][Ga+][O]C(=O)C5)CC3)cc12 [^natGa-SB03045]
IC50 (recombinant human FAP): 1.59 ± 0.45 nM

Further lines, with some results ahead:

FAP-binding potency, fold higher than the di-fluorinated analog (natGa-FAPI-04) (recombinant human FAP): > 5 fold
IC50 (recombinant human FAP): 0.68 ± 0.09 nM
SMILES: N#C[C@@H]1CSCN1C(=O)CNC(=O)c1ccnc2ccc(OCCCN3CCN(C(=O)CN4CCN5CCN(CC(=O)O)CCN(CC4)CC(=O)[O][Ga+][O]C(=O)C5)CC3)cc12 [^natGa-SB03058]

Excretion pathway [2]: excreted mainly via the renal pathway
Fold lower tumor uptake than [68Ga]Ga-FAPI-04 ([3]; HEK293T:hFAP tumor-bearing mice, 1 h pi): ~ 1.5 fold
Adrenal Glands uptake [3, 9]: 2.50 ± 1.58 %ID/g
Blood uptake [3, 9]: 2.07 ± 0.21 %ID/g
Bone uptake [3, 9]: 4.73 ± 0.52 %ID/g
Brain uptake [3, 9]: 0.11 ± 0.08 %ID/g
Fat uptake [3, 9]: 0.40 ± 0.23 %ID/g
Heart uptake [3, 9]: 0.59 ± 0.09 %ID/g
Kidneys uptake [3, 9]: 2.64 ± 0.28 %ID/g
Liver uptake [3, 9]: 0.62 ± 0.19 %ID/g
Lungs uptake [3, 9]: 1.25 ± 0.11 %ID/g
Muscle uptake [3, 9]: 1.42 ± 0.31 %ID/g
Pancreas uptake [3, 9]: 0.86 ± 0.16 %ID/g
Small Intestines uptake [3, 9]: 0.61 ± 0.05 %ID/g
Spleen uptake [3, 9]: 1.48 ± 1.01 %ID/g
Stomach uptake [3, 9]: 0.26 ± 0.07 %ID/g
Testes uptake [3, 9]: 0.48 ± 0.10 %ID/g
Tumor uptake [3, 9]: 7.93 ± 1.33 %ID/g
Tumor/Blood uptake ratio [3, 9]: 3.82 ± 0.25
Tumor/Bone uptake ratio [3, 9]: 1.67 ± 0.13
Tumor/Kidney uptake ratio [3, 9]: 3.01 ± 0.32
Tumor/Muscle uptake ratio [3, 9]: 5.64 ± 0.62
LogD7.4 [4]: −2.49 ± 0.28
SMILES: N#C[C@@H]1CSCN1C(=O)CNC(=O)c1ccnc2ccc(OCCCN3CCN(C(=O)CN4CCN5CCN(CC(=O)O)CCN(CC4)CC(=O)[O][68Ga+][O]C(=O)C5)CC3)cc12 [[^68Ga]Ga-SB03058]
Visualization of tumor xenografts in PET/CT images [2]: clearly visualized

Adrenal Glands uptake [3, 9]: 1.31 ± 0.60 %ID/g
Blood uptake [3, 9]: 1.20 ± 0.30 %ID/g
Bone uptake [3, 9]: 3.79 ± 1.36 %ID/g
Brain uptake [3, 9]: 0.05 ± 0.01 %ID/g
Fat uptake [3, 9]: 0.14 ± 0.06 %ID/g
Heart uptake [3, 9]: 0.37 ± 0.08 %ID/g
Kidneys uptake [3, 9]: 1.88 ± 0.18 %ID/g
Liver uptake [3, 9]: 0.40 ± 0.07 %ID/g
Lungs uptake [3, 9]: 0.80 ± 0.16 %ID/g
Muscle uptake [3, 9]: 0.76 ± 0.20 %ID/g
Pancreas uptake [3, 9]: 0.44 ± 0.16 %ID/g
Small Intestines uptake [3, 9]: 0.37 ± 0.07 %ID/g
Spleen uptake [3, 9]: 0.60 ± 0.14 %ID/g
Stomach uptake [3, 9]: 0.16 ± 0.19 %ID/g
Testes uptake [3, 9]: 0.28 ± 0.04 %ID/g
Tumor/Blood uptake ratio [3, 9]: 10.5 ± 3.25
Tumor/Bone uptake ratio [3, 9]: 3.49 ± 1.41
Tumor/Kidney uptake ratio [3, 9]: 6.41 ± 1.52
Tumor/Muscle uptake ratio [3, 9]: 16.8 ± 5.73
LogD7.4 [4]: −1.92 ± 0.35
SMILES: N#C[C@@H]1CC(F)(F)CN1C(=O)CNC(=O)c1ccnc2ccc(OCCCN3CCN(C(=O)CN4CCN5CCN(CC(=O)O)CCN(CC4)CC(=O)[O][68Ga+][O]C(=O)C5)CC3)cc12 [[^68Ga]Ga-FAPI-04, reference compound]
Drop of tumor uptake from 1 to 3 h post-injection [6]: 25%
